PubChem BioAssay (NCI)
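Exposure lasted 48 hours, with cells grown in 96-well plates and compounds tested at five concentrations. The concentration for full growth arrest is given as TGI.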

Key:
Experiment in all cases: growth of human tumour cells (NCI), 48 h
RXF 393 renal = test system: RXF 393 renal
COLO 205 colon = test system: COLO 205 colon
OVCAR-4 ovarian = test system: OVCAR-4 ovarian
M14 melanoma = test system: M14 melanoma
A498 renal = test system: A498 renal
HCT-116 colon = test system: HCT-116 colon
NCI-H23 lung = test system: NCI-H23 lung
OVCAR-5 ovarian = test system: OVCAR-5 ovarian
SK-MEL-2 melanoma = test system: SK-MEL-2 melanoma
TK-10 renal = test system: TK-10 renal
MOLT-4 leukemia = test system: MOLT-4 leukemia
U251 CNS = test system: U251 CNS
DU-145 prostate = test system: DU-145 prostate
786-0 renal = test system: 786-0 renal
UACC-62 melanoma = test system: UACC-62 melanoma
MCF7 breast = test system: MCF7 breast
SK-MEL-5 melanoma = test system: SK-MEL-5 melanoma
IGROV1 ovarian = test system: IGROV1 ovarian
UO-31 renal = test system: UO-31 renal
SF-539 CNS = test system: SF-539 CNS
HT29 colon = test system: HT29 colon
ACHN renal = test system: ACHN renal
MDA-N = test system: MDA-N
UACC-257 melanoma = test system: UACC-257 melanoma
MALME-3M melanoma = test system: MALME-3M melanoma
NCI/ADR-RES ovarian = test system: NCI/ADR-RES ovarian
SK-MEL-28 melanoma = test system: SK-MEL-28 melanoma
NCI-H226 lung = test system: NCI-H226 lung
HCC-2998 colon = test system: HCC-2998 colon
SF-268 CNS = test system: SF-268 CNS
RPMI-8226 leukemia = test system: RPMI-8226 leukemia
SF-295 CNS = test system: SF-295 CNS
NCI-H522 lung = test system: NCI-H522 lung
SNB-19 CNS = test system: SNB-19 CNS
OVCAR-8 ovarian = test system: OVCAR-8 ovarian
HCT-15 colon = test system: HCT-15 colon
K-562 leukemia = test system: K-562 leukemia
BT-549 breast = test system: BT-549 breast
KM12 colon = test system: KM12 colon
SW-620 colon = test system: SW-620 colon
NCI-H460 lung = test system: NCI-H460 lung
PC-3 prostate = test system: PC-3 prostate
CAKI-1 renal = test system: CAKI-1 renal
MDA-MB-231 breast = test system: MDA-MB-231 breast
LOX IMVI melanoma = test system: LOX IMVI melanoma
HOP-92 NSCLC = test system: HOP-92 NSCLC
OVCAR-3 ovarian = test system: OVCAR-3 ovarian
A549 NSCLC = test system: A549 NSCLC
HL-60(TB) leukemia = test system: HL-60(TB) leukemia
HS 578T breast = test system: HS 578T breast
EKVX NSCLC = test system: EKVX NSCLC
HOP-62 NSCLC = test system: HOP-62 NSCLC
SR leukemia = test system: SR leukemia
MDA-MB-435 = test system: MDA-MB-435
SN12C renal = test system: SN12C renal
SK-OV-3 ovarian = test system: SK-OV-3 ovarian
T-47D breast = test system: T-47D breast
SNB-75 CNS = test system: SNB-75 CNS
CCRF-CEM leukemia = test system: CCRF-CEM leukemia

C[C@@]1(O)C[C@@H](N2C(=O)O[C@@H](c3ccccc3)[C@H]2c2ccccc2)[C@@H]1COCc1ccccc1
TGI (RXF 393 renal): 80.2 µM
TGI (COLO 205 colon): 36.4 µM
TGI (OVCAR-4 ovarian): > 100 µM
TGI (M14 melanoma): 30 µM
TGI (A498 renal): 52.9 µM
TGI (HCT-116 colon): 47.4 µM
TGI (NCI-H23 lung): 43.6 µM
TGI (OVCAR-5 ovarian): 78.2 µM
TGI (SK-MEL-2 melanoma): 27.5 µM
TGI (TK-10 renal): 99.7 µM
TGI (MOLT-4 leukemia): 26.4 µM
TGI (U251 CNS): 32.9 µM
TGI (DU-145 prostate): > 100 µM
TGI (786-0 renal): 48.9 µM
TGI (UACC-62 melanoma): 31.5 µM
TGI (MCF7 breast): > 100 µM
TGI (SK-MEL-5 melanoma): 27.2 µM
TGI (IGROV1 ovarian): > 100 µM
TGI (UO-31 renal): 67.8 µM
TGI (SF-539 CNS): 38.4 µM
TGI (HT29 colon): 50.6 µM
TGI (ACHN renal): > 100 µM
TGI (MDA-N): 38.5 µM
TGI (UACC-257 melanoma): 36.7 µM
TGI (MALME-3M melanoma): 46.8 µM
TGI (NCI/ADR-RES ovarian): 64.8 µM
TGI (SK-MEL-28 melanoma): 44.5 µM
TGI (NCI-H226 lung): 42.8 µM
TGI (HCC-2998 colon): 58.4 µM
TGI (SF-268 CNS): 48.1 µM
TGI (RPMI-8226 leukemia): 68.8 µM
TGI (SF-295 CNS): 41.3 µM
TGI (NCI-H522 lung): 38.3 µM
TGI (SNB-19 CNS): > 100 µM
TGI (OVCAR-8 ovarian): 54 µM
TGI (HCT-15 colon): 84.3 µM
TGI (K-562 leukemia): > 100 µM
TGI (BT-549 breast): 51.2 µM
TGI (KM12 colon): 74.3 µM
TGI (SW-620 colon): > 100 µM
TGI (NCI-H460 lung): 68.1 µM
TGI (PC-3 prostate): 50.3 µM
TGI (CAKI-1 renal): > 100 µM
TGI (MDA-MB-231 breast): 39.8 µM
TGI (LOX IMVI melanoma): 32.9 µM
TGI (HOP-92 NSCLC): 89 µM
TGI (OVCAR-3 ovarian): 46.1 µM
TGI (A549 NSCLC): 97.9 µM
TGI (HL-60(TB) leukemia): 23.5 µM
TGI (HS 578T breast): 62.9 µM
TGI (EKVX NSCLC): 70.3 µM
TGI (HOP-62 NSCLC): 75.3 µM
TGI (SR leukemia): 52.7 µM
TGI (MDA-MB-435): > 100 µM
TGI (SN12C renal): 38.5 µM

COc1ccc(/C=C2\NC(=S)N(/C=C3\C(=O)Oc4ccccc4C3=O)C2=O)cc1OC
TGI (RXF 393 renal): > 100 µM
TGI (COLO 205 colon): > 100 µM
TGI (OVCAR-4 ovarian): > 100 µM
TGI (M14 melanoma): > 100 µM
TGI (A498 renal): > 100 µM
TGI (HCT-116 colon): > 100 µM
TGI (NCI-H23 lung): > 100 µM
TGI (OVCAR-5 ovarian): > 100 µM
TGI (SK-MEL-2 melanoma): > 100 µM
TGI (TK-10 renal): > 100 µM
TGI (MOLT-4 leukemia): > 100 µM
TGI (U251 CNS): > 100 µM
TGI (DU-145 prostate): > 100 µM
TGI (786-0 renal): > 100 µM
TGI (UACC-62 melanoma): > 100 µM
TGI (MCF7 breast): > 100 µM
TGI (SK-MEL-5 melanoma): > 100 µM
TGI (SK-OV-3 ovarian): > 100 µM
TGI (IGROV1 ovarian): > 100 µM
TGI (UO-31 renal): > 100 µM
TGI (SF-539 CNS): > 100 µM
TGI (HT29 colon): > 100 µM
TGI (ACHN renal): > 100 µM
TGI (MDA-N): > 100 µM
TGI (UACC-257 melanoma): > 100 µM
TGI (T-47D breast): > 100 µM
TGI (SNB-75 CNS): > 100 µM
TGI (NCI/ADR-RES ovarian): > 100 µM
TGI (NCI-H226 lung): > 100 µM
TGI (HCC-2998 colon): > 100 µM
TGI (SF-268 CNS): > 100 µM
TGI (RPMI-8226 leukemia): > 100 µM
TGI (SF-295 CNS): > 100 µM
TGI (NCI-H522 lung): > 100 µM
TGI (SNB-19 CNS): > 100 µM
TGI (CCRF-CEM leukemia): > 100 µM
TGI (OVCAR-8 ovarian): > 100 µM
TGI (HCT-15 colon): > 100 µM
TGI (K-562 leukemia): > 100 µM
TGI (BT-549 breast): > 100 µM
TGI (KM12 colon): > 100 µM
TGI (SW-620 colon): > 100 µM
TGI (NCI-H460 lung): > 100 µM
TGI (PC-3 prostate): > 100 µM
TGI (CAKI-1 renal): > 100 µM
TGI (MDA-MB-231 breast): > 100 µM
TGI (LOX IMVI melanoma): > 100 µM
TGI (HOP-92 NSCLC): > 100 µM
TGI (OVCAR-3 ovarian): > 100 µM
TGI (A549 NSCLC): > 100 µM
TGI (HL-60(TB) leukemia): > 100 µM
TGI (HS 578T breast): > 100 µM
TGI (EKVX NSCLC): > 100 µM
TGI (HOP-62 NSCLC): > 100 µM
TGI (MDA-MB-435): > 100 µM
TGI (SN12C renal): > 100 µM
